This passage reports EC50 results from BindingDB's records for doi:10.7270/Q20000JS (Johns Hopkins Ion Channel Center, 2010).

The structures appear in SMILES notation. pEC50: −log10 of the molar value.

The pEC50 is the EC50 on a negative log10 scale, so that one unit is a factor of ten.

The assay addresses Potassium voltage-gated channel subfamily KQT member 2 (Rattus norvegicus, UniProt O88943). The assay is described as follows: KCNQ2 channel potentiators, dose response, mechanism study for KCNQ2 potentiator project, cell-based, automated electrophysiology (AID 2603).

Potassium voltage-gated channel subfamily KQT member 2, sequence (O88943 whole entry): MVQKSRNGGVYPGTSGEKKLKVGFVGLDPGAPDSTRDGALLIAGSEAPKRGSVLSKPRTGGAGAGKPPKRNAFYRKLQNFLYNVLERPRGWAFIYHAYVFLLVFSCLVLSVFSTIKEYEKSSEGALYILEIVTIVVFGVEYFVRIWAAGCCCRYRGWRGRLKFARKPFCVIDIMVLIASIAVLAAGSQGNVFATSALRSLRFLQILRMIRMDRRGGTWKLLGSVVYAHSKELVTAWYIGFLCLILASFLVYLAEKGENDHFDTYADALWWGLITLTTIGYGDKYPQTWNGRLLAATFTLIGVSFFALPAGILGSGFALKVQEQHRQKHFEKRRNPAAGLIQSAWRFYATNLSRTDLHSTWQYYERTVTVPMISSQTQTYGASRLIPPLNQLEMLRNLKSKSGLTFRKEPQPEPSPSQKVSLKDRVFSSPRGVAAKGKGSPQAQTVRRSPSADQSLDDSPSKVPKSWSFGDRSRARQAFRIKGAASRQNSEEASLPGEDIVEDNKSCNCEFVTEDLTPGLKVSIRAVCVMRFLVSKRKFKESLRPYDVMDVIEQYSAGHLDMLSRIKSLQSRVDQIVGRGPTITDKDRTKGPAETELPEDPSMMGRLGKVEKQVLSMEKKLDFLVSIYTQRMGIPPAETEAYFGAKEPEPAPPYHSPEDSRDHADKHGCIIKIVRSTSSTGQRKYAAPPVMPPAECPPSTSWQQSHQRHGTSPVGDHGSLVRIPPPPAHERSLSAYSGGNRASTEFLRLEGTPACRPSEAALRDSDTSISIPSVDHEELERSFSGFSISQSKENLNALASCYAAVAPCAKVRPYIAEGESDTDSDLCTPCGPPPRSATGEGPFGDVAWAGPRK

Take `CC(C)N1C(=O)C(=NNc2ccc(Cl)c(C(=O)O)c2)c2ccccc21` [MLS000773916]: the negative logarithm of the EC50 (pEC50) was 5.43.

`CC1=NC(=O)NC(c2cccc(O)c2)C1C(=O)OC1CCCCCCC1` (configuration not stated) [SMR000111748]: the negative-log EC50 (pEC50) is 3.27.
